Results on four molecules are retold here after patent US9415034B2, “Inhibitors and enhancers of uridine diphosphate-glucuronosyltransferase 2B (UGT2B)” (NATIONAL DEFENSE MEDICAL CENTER, priority 2005, dated 2016).

For data set [1] the following is noted: SD rat.
The conditions of data set [2]: SD rat, intravenous nalbuphine, with or without capillarisin, Mean ± SE, n = 6.
Data set [3] in a line: in vivo. To be noted: male, Sprague-Dawley, rat, serum, iv, 1 mg/Kg.
For data set [4] the following is noted: in vivo; cited from earlier work.
Data set [5] can be described thus: in vivo. Conditions: male, Sprague-Dawley, rat, serum, po.
In the next data set the test system is UGT2B. The experiment in a line: in vitro. To be noted: for % Inhibition (Mean ± SD): negative = enhancement. Here is the method: In the following experiment, 27 different kinds of CHEs and 10 different excipients were used as UGT2B inhibitor in this invention. These CHEs are pure compounds available commercially, and were purchased from Sigma Chemical Co., Nacalai Tesque (Kyoto, Japan) and Indofine Chemical Co., Inc. (Somerville, N.J.). These UGT2B inhibitors are dissolved in alcohol at the concentration of 1, 10, 100 μM for the following experiment.
These excipients are dissolved in water and make up to 0.5%, 5%, 50% (wt %, w/v) for the following experiment. (Note: BRIJ is a registered trademark of ICI Americas, Inc.; Pluronic is a registered trademark of BASF Corporation.)
The Sprague-Dawley male rats, weighted 300-400 g are used as model animals in these experiments. The microsome is prepared as follows: • i. Sacrifice a rat after 12-16 hours fasting, take its liver; wipe dry the liver and weigh it. • ii. Add 300% (by volume) of cold 0.3M sucrose solution, and homogenize the liver. • iii. Centrifuge the homogenized liver suspension at 9000×g speed (KS-800, Kubota, made in Japan) for 10 min at 4° C. Collect the supernatant. • iv. Centrifuge the supernatant at 105,000×g speed (L8-60M, Beckman, made in USA) for 60 min at 4° C. • v. Remove the supernatant, add 0.3M sucrose (of the same volume) and repeat the homogenization. The homogenized liver suspension is the microsome. Store the microsome at −70° C.
Thaw the microsome before use. Add 5 μl/ml BRIJ®35 (Fisher et al. 2000, Drug Metabolism & Disposition. 28(5):560-6) into microsome by a ratio of microsome:BRIJ®35=8:1 (v/v).
The protein amount is determined as follows: • i. Take 0.1 ml microsome and dilute to 5 ml 0.85% NaCl (50-fold dilution, v/v). Take 0.2 ml of the diluted microsome and place it in a capped test tube (triple experiments). Separately, replacing microsome with 0.2 ml NaCl as the control. • ii. Add 2.2 ml Biuret regent (SIGMA, 690-A) into each test tube, mix well and store at room temperature for 10 min. • iii. Add 0.1 ml folin regent (SIGMA, 690-A), mix immediately, and store at room temperature for 30 min. Measure the absorbance at 550 nm wave length within the 30 min. Measure the concentration of protein in microsome based on the standard curve generated by various bovine albumin concentration and absorbance. 4. The Measurement of the Inhibition of UGT2B Activity in vitro • i. […] Mix solution (A) and 17 μl solution (B) thoroughly, place in a 37° C. water bath and shake at 125 rpm for 60 min. • iii. Add 1 ml ACN to interrupt the reaction. • iv. Centrifuge at 130,000×g speed at 4° C. for 5 min, and • v. […] 5.
Set the Ultra-violet detector's (SPD-10A, Shimadzu, Kyoto, made in Japan) wave length to 210 nm.
Those CHEs are commercially available pure compounds, acquired from Sigma Chemical Co., Nacalai Tesque (Kyoto, Japan) and […] (Somerville, N.J.). Their categories, names, sources, and chemical compositions are described in Table 5.

Where [6] appears, read: oral nalbuphine 100 mg/Kg, with or without capillarisin 4 mg/Kg, Mean ± SE, n = 6.
The mark [7] stands for this setting: male, Sprague-Dawley, rat, % Inhibition (Mean ± SD).

Several values for one entry are separate records, joined by “and”; a condition that tells them apart may be missing. Identical values can stand only once. Like-named read-outs stand apart in the source and are kept apart here.

Regarding `Oc1ccc2c3c1O[C@H]1[C@@H](O)CC[C@@]4(O)[C@@H](C2)N(CC2CCC2)CC[C@]314` [Nalbuphine, nalbuphine], in data set [1] (setting [6]), the “AUC(total)” value turned out to be 24356 ± 8865 ng·min/mL and the k worked out at 0.0027 ± 0.0007 min⁻¹. Besides, the “absolute bio-availability of orally administered nalbuphine” value in data set [1] (oral nalbuphine with or without capillarisin) is 5% and 12.759±4.64%. Besides, in data set [2], the “AUC(total)” value was 1909 ± 330 ng·min/mL, the CL/F came out at 50.6 ± 14.1 L/h/kg and the k was found to be 0.016 ± 0.004 min⁻¹. Further, the “AUC(total)” value in data set [2] (listed as nalbuphine) is 7135 ± 1218 ng·min/mL. In addition, in “in vivo [3]”, the AUC(0-t) was 28.8 ng·h/mL, the concentration peaked (Cmax) at 154 ± 30 ng/mL, the MRT was 0.983 h and the half-life stood at 1.28 ± 0.483 h. The “half life through the excretion of liver” value in data set [4] was 5 h. Further, in “in vivo [5]” (100 mg/Kg), the highest level (Cmax) was 79.3 ± 18 ng/mL and the Tmax was 1.62 h. In “in vivo [5]” (100 mg/kg), this molecule showed an AUC(0-t) of 357 ng·h/mL, a CL/F of 350 ± 62.9 L/h/kg, a Cmax of 79 ± 18 ng/mL and an MRT of 8.27 h. For the same molecule, the half-life in the data set “in vivo [5]” (100 mg/kg) is 5.53 ± 1.03 h.
`O=c1cc(-c2ccccc2)oc2c1ccc1ccccc12` [α-naphthoflavone, α- Naphthoflavone]: in the data set on UGT2B (setting [7]), the inhibition at 60 min, 8.5 µM turned out to be 72.3 ± 2.81%; the inhibition at 60 min, 85 µM is 97.8 ± 4.37%; the inhibition at 60 min, 850 µM is 90.8 ± 7.17%. Further, the inhibition at 60 min with UGT2B (male, Sprague-Dawley, rat, inhibition rate on the metabolism of nalbuphine in microsome) is not below 30%.
On to `COc1ccc([C@@H]2CC(=O)c3c(O)cc(O[C@@H]4O[C@H](CO)[C@@H](O)[C@H](O)[C@H]4O[C@@H]4O[C@@H](C)[C@H](O)[C@@H](O)[C@H]4O)cc3O2)cc1O` [neohesperidin, Neohesperidin], for which the “% Inhibition (Mean ± SD)” value is −66.586 ± 9.614% in the data set on UGT2B (Table 6, enhancer 8.5 μM); −113.63 ± 8.986% in the data set on UGT2B (Table 6, enhancer 85 μM); −113.46 ± 16.721% in the data set with UGT2B (Table 6, enhancer 850 μM).
As to `CC1(C)[C@@H](O[C@H]2O[C@H](C(=O)O)[C@@H](O)[C@H](O)[C@H]2O[C@@H]2O[C@H](C(=O)O)[C@@H](O)[C@H](O)[C@H]2O)CC[C@]2(C)[C@H]3C(=O)C=C4[C@@H]5C[C@@](C)(C(=O)O)CC[C@]5(C)CC[C@@]4(C)[C@]3(C)CC[C@@H]12` [glycyrrhizin, Glycyrrhizin], in the data set with UGT2B (setting [7]), the inhibition at 60 min, 8.5 µM turned out to be 9.93 ± 6.66%; the inhibition at 60 min, 8.5 μM was determined as 9.93 ± 6.66%; the inhibition at 60 min, 85 µM was -20.3 ± 3.67%; the inhibition at 60 min, 85 μM was -20.3 ± 3.67%. Further, in the data set with UGT2B (setting [7]), the inhibition at 60 min, 850 µM was -5.65 ± 6.62% and the inhibition at 60 min, 850 μM is -5.65 ± 6.62%.

In general, CL/F refers to the apparent clearance, not corrected for the fraction that reaches the circulation. By AUC(0-t) is commonly meant exposure summed from dosing to a finite time, without extrapolation to infinity. Read a low AUC(0-t) as less exposure. As a reminder, the Cmax is the highest concentration seen after dosing. The MRT is a mean duration of stay, worked out from the concentration-time curve. The half-life is the time needed for the level to fall by half in the phase considered. Lower therefore signals fast loss. What is called Tmax is the time from dosing to the highest level. A word on the inhibition: it is the change of the read-out against control, counted positive when it falls.
